Test results from US20090076278A1, “METHINE DYES AND USES OF THE SAME” (KABUSHIKI KAISHA HAYASHIBARA SEIBUTSU KAGAKU KENKYUJO, priority 2006, published 2009).

What was measured:
Format in all cases: physicochemical
[1] = Solubility of methine dye in TFP; settings: for Solubility: dissolved in 100 ml of TFP at 20° C.; for solubility in TFP (in words): 1.6% by weight in TFP for forming a recording layer
Experimental: For the methine dyes of the present invention as listed in Table 1, they were respectively dissolved in 100 ml of TFP at 20° C. and, as solubility, measured for the mass of each methine dye. In parallel, conventionally known related compounds represented by Chemical Formulae 65 to 67 were similarly measured for their solubilities.

[2] = Light tolerance of dye thin membrane under xenon lamp exposure; settings: thin membrane on glass substrate; 7.5 kw xenon lamp, two hours, 180 W/m^2; transmittance at absorption maximum wavelength (about 550 nm)
Experimental: Any one of the methine dyes represented by Chemical Formulae 1 to 3, 8 and 36, obtained by the methods in Examples 4 to 8, was weighed by 15 mg, added to three milliliters of TFP, and dissolved by energizing with ultra sound for five minutes at ambient temperature. The resulting solution was dropped to homogeneity over either side of a polished glass substrate (5 cm×5 cm) by spin coating, and the substrate was rotated at 1,000 rμm for one minute to homogeneously apply the solution over the substrate, and dried by successively blowing hot air and cool air thereunto in this order to form a thin membrane of any one of the methine dyes of the present invention over the glass substrate.
The transmittance (T0) of the methine dyes in the form of a thin layer was measured at their absorption maximum wavelengths (about 550 nm), and a 7.5 kw xenon lamp was installed apart from the glass substrate at a prescribed distance to expose the glass substrate for two hours with an irradiation energy of 180 W/m^2 when measured on the surface of the substrate while blowing cool air thereunto. Thereafter, the transmittance (T) at each of their absorption maximum wavelengths was instantly remeasured, and the residual percentage (%) of each dye was calculated by substituting the measured transmittances T and To Formula 1. In parallel, the thin membranes formed with the related compounds represented by Chemical Formulae 65 to 68 were similarly treated as in the above and respectively measured for their transmittances at their absorption maximum wavelengths.

[3] = DSC analysis for decomposition point (thermal property); settings: DSC analysis of crystal
Excerpt: As described above, the methine dyes of the present invention have main absorption maxima in the region at wavelengths of longer than 300 nm, usually, at wavelengths of around 350 to 850 nm, and have distinctly high molecular absorption coefficients (may be abbreviated as “ε”) of 1.0×10^5 or more, usually, 1.5×10^5 or more at their absorption maxima, and efficiently absorb the light in such wavelength region. […] As is well known, it is said that the decomposition point and the glass transition point of an organic compound are recognized as important indexes of their thermal stability, i.e., compounds with higher decomposition points and glass transition points tend to have a higher thermal stability. Accordingly, the methine dyes of the present invention can be quite advantageously used as light-absorption materials which absorb the light in the ultra violet and the infrared regions to shield it, or use the light energy of the above regions in various fields of, for example, information recordings, solar energy generations, electric equipments, electric communications apparatuses, optical equipments, clothes, building/bedding/decorating products, health goods, and agricultural materials. The decomposition points of the methine dyes can be determined by conventional […] (abbreviated as “DSC” herein after).
Conventional measurement of the dye for visible absorption spectrum in methanol solution as an absorption property gave a main absorption maximum at a wavelength of about 544 nm (E=1.94×10^5). ^1H-NMR Analysis of the methine dye in dimethyl sulfoxide-d^6 solution gave a chemical shift δ (ppm, TMS) at peaks of 0.15 to 0.32 (2H, m, —CH2—), 0.65 to 0.82 (2H, m, —CH2—), (6H, t, CH3—), 1.23 (6H, t, CH3—), 1.62 (6H, s, CH3—), 1.80 (6H, s, CH3—), 1.87 (6H, s, CH3—), 1.85 to 2.07 (2H, m, —CH2—), 2.70 to 2.90 (2H, m, —CH2—), 3.95 to 4.20 (8H, m, —CH2—), 6.39 (2H, d, —CH═), 6.48 (2H, d, —CH═), 7.51 (2H, t, ArH), 7.59 (2H, t, ArH), 7.61 (2H, d, ArH), 7.66 (2H, t, ArH), 7.75 (2H, d, ArH), 7.78 (2H, t, ArH), 8.01 (4H, t, ArH), 8.13 (4H, t, ArH), 8.16 (2H, d, ArH), 8.24 (2H, d, ArH), and 8.32 (2H, t, —CH═).

Solubility [1]	solubility in TFP (in words) [1]	decomposition point [3]	SMILES	Residual percentage (%) of dye [2]
1.10 % by weight			CCN1C(=CC=CC2=[N+](CC)c3ccc4ccccc4c3C2(C)C)C(C)(C)c2c1ccc1ccccc21 [Chemical Formula 65, reference compound]	73%
0.44 % by weight	relatively low solubility in TFP		CCN1C(=CC=CC2=[N+](CCCCCC[N+]3=C(C=CC=C4N(CC)c5ccc6ccccc6c5C4(C)C)C(C)(C)c4c3ccc3ccccc43)c3ccc4ccccc4c3C2(C)C)C(C)(C)c2c1ccc1ccccc21 [Chemical Formula 67]	60%
2.47 % by weight		about 235 °C	CCN1C(=CC=CC2=[N+](CC)c3ccc4ccccc4c3C2(C)CCCCC2(C)C(C=CC=C3N(CC)c4ccc5ccccc5c4C34CCCCC4)=[N+](CC)c3ccc4ccccc4c32)C2(CCCCC2)c2c1ccc1ccccc21.F[P-](F)(F)(F)(F)F.F[P-](F)(F)(F)(F)F (stereo not shown) [Chemical Formula 3]	64%
2.58 % by weight			CCN1C(=CC=CC2=[N+](CC)c3ccc4ccccc4c3C2(C)CCCCCCC2(C)C(C=CC=C3N(CC)c4ccc5ccccc5c4C3(C)C)=[N+](CC)c3ccc4ccccc4c32)C(C)(C)c2c1ccc1ccccc21.F[P-](F)(F)(F)(F)F.F[P-](F)(F)(F)(F)F (stereo not shown) [Chemical Formula 8]	75%
			CCN1C(=CC=CC2=[N+](CC)c3ccc4ccccc4c3C2(C)Cc2ccccc2)C(C)(Cc2ccccc2)c2c1ccc1ccccc21 (stereo not shown) [Chemical Formula 68, reference compound]	50%
		about 300 °C	C[N+]1=C(C=CNc2ccccc2)C(C)(CCCCC2(C)C(C=CNc3ccccc3)=[N+](C)c3ccc4ccccc4c32)c2c1ccc1ccccc21.[O-][Cl+3]([O-])([O-])[O-].[O-][Cl+3]([O-])([O-])[O-] (stereo not shown) [Chemical Formula 24]	
0.82 % by weight	relatively low solubility in TFP		CCN1C(=CC=CC2=[N+](CC)c3ccc4ccccc4c3C23CCCCC3)C(C)(C)c2c1ccc1ccccc21 [Chemical Formula 66]	58%
1.66 % by weight		about 220 °C	CCN1C(=CC=CC2=[N+](C)c3ccc4ccccc4c3C2(C)Cc2ccc(CC3(C)C(C=CC=C4N(CC)c5ccc6ccccc6c5C4(C)Cc4ccccc4)=[N+](C)c4ccc5ccccc5c43)cc2)C(C)(Cc2ccccc2)c2c1ccc1ccccc21.F[P-](F)(F)(F)(F)F.F[P-](F)(F)(F)(F)F (stereo not shown) [Chemical Formula 36]	64%
		about 285 °C	CN1C(=CC2=[N+](C)c3ccc4ccccc4c3C2(C)CCCCC2(C)C(C=C3Oc4ccccc4N3C)=[N+](C)c3ccc4ccccc4c32)Oc2ccccc21.[O-][Cl+3]([O-])([O-])[O-].[O-][Cl+3]([O-])([O-])[O-] (stereo not shown) [Chemical Formula 21]	
2.68 % by weight		about 211 °C	CCN1C(=CC=CC2=[N+](CC)c3ccc4ccccc4c3C2(C)CCCCC2(C)C(C=CC=C3N(CC)c4ccc5ccccc5c4C3(C)Cc3ccccc3)=[N+](CC)c3ccc4ccccc4c32)C(C)(Cc2ccccc2)c2c1ccc1ccccc21.F[P-](F)(F)(F)(F)F.F[P-](F)(F)(F)(F)F (stereo not shown) [Chemical Formula 2]	66%
